According to patent US8466144B2, “Muscarinic antagonists with parp and sir modulating activity as cytoprotective agents” (Proteosys AG, priority 2004, dated 2013):

Assays:
[1] = tested on: undifferentiated V56 embryonic stem cells; assay: LPS challenge, cell survival by Trypan Blue; format: cell-based; settings: LPS 100 ng/ml for 60 min
Description: (§1) Cell pellets were further investigated by Western blot staining with anti Cox-2 and anti iNOS antibodies of 1D polyacrylamide gels.
(§2) Cell survival was assessed by Trypan Blue staining.

3T3 fibroblasts = assay: LPS challenge, cell survival by Trypan Blue; format: cell-based; settings: LPS 100 ng/ml for 60 min
Description: as §1, §2

A 549 cells = assay: LPS challenge, cell survival by Trypan Blue; format: cell-based; settings: LPS 100 ng/ml for 60 min
Description: as §1, §2

[2] = tested on: neurally differentiated V56 embryonic stem cells; assay: LPS challenge, cell survival by Trypan Blue; format: cell-based; settings: LPS 100 ng/ml for 60 min
Description: as §1, §2

[3] = tested on: neurons from D3 embryonic stem (ES) cells; assay: Cell culture model for chemical ischemia and neuroprotection (calcium imaging of surviving neurons); format: cell-based, mice; settings: β-methyl-cyclodextrin or filipin
Description: For all experiments, D3 embryonic stem (ES) cells derived from 129/sv mice [Okabe et al., 1996] were cultivated for 12 days, with passages on days 2, 4, 7 and 9 as described previously [Sommer et al., 2004]. Insult conditions: Cells (24-well plates) were pre-incubated with or without 20 nM EPO in fresh medium for 24 hours at 37° C. Cells were rinsed once with low K^+ solution (140 mM NaCl, 4.7 mM KCl, 1.2 mM KH2PO4, 2.5 mM CaCl2, 1.2 mM MgSO4, 11 mM glucose, 15 mM Hepes-NaOH, pH 7.35). Cells (either with or without EPO pre-incubation) were incubated for up to 45 min (37° C.) with either low K^+ solution or with glucose-free low K^+ solution supplemented with 1 mM KCN (chemical ischemia solution [Kume et al., 2002]). Vitality control to asses numbers of surviving neurons was performed by a brief stimulation with a low dose of glutamate (10 μM).
Functional tests by calcium imaging were performed essentially as described [Sommer et al., 2004]. Briefly, cells were loaded with 2 μM of fura-2 AM in DMEM for 45 min at 37° C. in the dark. Measurements of relative changes in [Ca^2+] were made on an inverted epifluorescence microscope (Olympus IX70 S1F2) with a Polychrom IV Monochromator (Xe-lamp, USHIO). Excitation wavelengths (λ1, λ2) and the emission wavelength were 340, 380 and 510 nm, respectively. […]

[4] = biological target: T1, recombinant monomeric PARP-1 (Homo sapiens, UniProt P09874); assay: PARP inhibition assay (R&D Systems); format: biochemical; settings: FIG. 4b
T1 construct: purchased R&D Systems TA4669
Text: A PARP inhibition assay from R&D Systems was used (Cat.No. TA4669) according to instructions of the supplier.
Under cellular conditions PARP-1 poly-ADP-ribosylates a host of nuclear proteins, including topoisomerase 1, 14-3-3 g and PARP-1 itself. Thus under cellular conditions, the self-modification of PARP-1 and dimerization are regulating its activity, moreover there is a tight interplay with PARG (poly-ADP- ribosyl-glycohydroxylase).

PARP-1 = assay: Affinity tag enrichment from cell extracts (1D PAGE, MALDI-TOF, immunostaining); format: binding
Description: (§3) A reactive —SCN group is introduced which binds to lysines in or near the binding site of the compound. A biotinylated linker serves for enrichment of bound protein. The synthesis is described in FIG. 1.
(§4) The affinity reagent 11 was used to bind the target covalently from fractionations of crude cell extracts of D3 ES cells and other cell lines, subsequently the affinity purified material was analysed by 1D PAGE, immunostaining, and mass spectrometry.
(§5) The subsequent fractionation, isolation and further analysis was performed according to published standard procedures (Sommer et al. 2004). A commercial anti-PARP antibody was used for staining Western blots. Mass spectrometry for independent identification of pirenzepine-tagged proteins was performed as described elsewhere recently (Vogt et al., 2003, Cahill et al., 2003).
(§6) A reactive —SCN group binds to lysins in or near the binding site of the compound. A biotinylated linker serves for enrichment of bound protein. The final affinity reagent, thiocyanato-11-[2-(4-biocytinyl-piperazin-1-yl)-acetyl]-5,11-dihydro-benzo[e]pyrido [3,2-b] [1,4] diazepin-6-one (compound (11), FIG. 1), was used to bind the target covalently from fractionations of crude cell extracts of D3 embryonic stem cells, subsequently the affinity purified material was analysed by 1D PAGE (FIG. 3a), mass spectrometry and immunostaining. […]

SIR-2 = biological target: T2, SIR-2 (Mus musculus, UniProt Q923E4); assay: as above; format: binding
T2 construct: endogenous in cells; host or cells: D3 embryonic stem cells / V56 embryonic stem cells (crude extract)
T2 sequence (Q923E4 1-737): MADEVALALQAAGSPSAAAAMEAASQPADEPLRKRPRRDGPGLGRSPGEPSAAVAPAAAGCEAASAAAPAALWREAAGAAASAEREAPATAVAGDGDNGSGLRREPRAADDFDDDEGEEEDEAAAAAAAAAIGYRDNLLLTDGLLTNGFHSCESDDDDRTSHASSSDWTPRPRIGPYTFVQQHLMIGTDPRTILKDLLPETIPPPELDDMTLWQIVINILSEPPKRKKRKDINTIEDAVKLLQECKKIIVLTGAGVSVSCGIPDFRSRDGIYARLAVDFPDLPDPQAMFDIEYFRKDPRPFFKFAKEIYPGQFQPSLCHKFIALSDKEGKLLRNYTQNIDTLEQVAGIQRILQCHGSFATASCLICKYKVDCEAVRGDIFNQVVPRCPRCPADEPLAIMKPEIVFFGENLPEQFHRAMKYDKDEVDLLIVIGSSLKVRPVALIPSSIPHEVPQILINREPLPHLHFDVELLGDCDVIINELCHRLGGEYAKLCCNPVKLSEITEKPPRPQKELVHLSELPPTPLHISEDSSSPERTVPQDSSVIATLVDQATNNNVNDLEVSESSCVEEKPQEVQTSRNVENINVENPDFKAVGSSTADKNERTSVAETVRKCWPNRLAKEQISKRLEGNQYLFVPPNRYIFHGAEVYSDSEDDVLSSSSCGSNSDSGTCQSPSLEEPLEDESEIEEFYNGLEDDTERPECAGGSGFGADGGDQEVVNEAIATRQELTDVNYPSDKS
Description: as §3, §4, §5, §6

PARP-1, sequence (P11103 215-1013 limits assumed): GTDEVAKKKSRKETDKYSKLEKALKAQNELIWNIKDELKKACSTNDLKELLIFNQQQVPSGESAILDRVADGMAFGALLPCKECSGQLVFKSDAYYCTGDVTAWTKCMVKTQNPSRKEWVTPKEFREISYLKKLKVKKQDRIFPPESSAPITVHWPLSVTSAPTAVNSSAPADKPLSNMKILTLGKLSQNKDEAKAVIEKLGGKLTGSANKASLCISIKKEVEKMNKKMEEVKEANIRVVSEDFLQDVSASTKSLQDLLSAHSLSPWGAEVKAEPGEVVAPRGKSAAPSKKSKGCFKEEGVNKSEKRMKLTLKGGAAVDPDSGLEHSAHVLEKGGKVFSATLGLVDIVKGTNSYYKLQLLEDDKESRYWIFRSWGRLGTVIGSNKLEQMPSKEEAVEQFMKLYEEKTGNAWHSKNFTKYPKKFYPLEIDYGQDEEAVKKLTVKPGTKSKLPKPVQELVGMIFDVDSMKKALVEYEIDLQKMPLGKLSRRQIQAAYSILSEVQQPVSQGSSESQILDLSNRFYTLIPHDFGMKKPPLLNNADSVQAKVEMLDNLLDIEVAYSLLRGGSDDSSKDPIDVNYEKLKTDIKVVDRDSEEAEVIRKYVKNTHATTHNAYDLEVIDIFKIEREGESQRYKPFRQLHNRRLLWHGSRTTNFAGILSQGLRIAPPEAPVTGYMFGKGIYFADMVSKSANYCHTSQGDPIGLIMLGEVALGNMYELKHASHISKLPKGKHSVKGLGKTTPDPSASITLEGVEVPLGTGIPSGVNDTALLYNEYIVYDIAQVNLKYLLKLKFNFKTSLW
T1 sequence (P09874 whole entry): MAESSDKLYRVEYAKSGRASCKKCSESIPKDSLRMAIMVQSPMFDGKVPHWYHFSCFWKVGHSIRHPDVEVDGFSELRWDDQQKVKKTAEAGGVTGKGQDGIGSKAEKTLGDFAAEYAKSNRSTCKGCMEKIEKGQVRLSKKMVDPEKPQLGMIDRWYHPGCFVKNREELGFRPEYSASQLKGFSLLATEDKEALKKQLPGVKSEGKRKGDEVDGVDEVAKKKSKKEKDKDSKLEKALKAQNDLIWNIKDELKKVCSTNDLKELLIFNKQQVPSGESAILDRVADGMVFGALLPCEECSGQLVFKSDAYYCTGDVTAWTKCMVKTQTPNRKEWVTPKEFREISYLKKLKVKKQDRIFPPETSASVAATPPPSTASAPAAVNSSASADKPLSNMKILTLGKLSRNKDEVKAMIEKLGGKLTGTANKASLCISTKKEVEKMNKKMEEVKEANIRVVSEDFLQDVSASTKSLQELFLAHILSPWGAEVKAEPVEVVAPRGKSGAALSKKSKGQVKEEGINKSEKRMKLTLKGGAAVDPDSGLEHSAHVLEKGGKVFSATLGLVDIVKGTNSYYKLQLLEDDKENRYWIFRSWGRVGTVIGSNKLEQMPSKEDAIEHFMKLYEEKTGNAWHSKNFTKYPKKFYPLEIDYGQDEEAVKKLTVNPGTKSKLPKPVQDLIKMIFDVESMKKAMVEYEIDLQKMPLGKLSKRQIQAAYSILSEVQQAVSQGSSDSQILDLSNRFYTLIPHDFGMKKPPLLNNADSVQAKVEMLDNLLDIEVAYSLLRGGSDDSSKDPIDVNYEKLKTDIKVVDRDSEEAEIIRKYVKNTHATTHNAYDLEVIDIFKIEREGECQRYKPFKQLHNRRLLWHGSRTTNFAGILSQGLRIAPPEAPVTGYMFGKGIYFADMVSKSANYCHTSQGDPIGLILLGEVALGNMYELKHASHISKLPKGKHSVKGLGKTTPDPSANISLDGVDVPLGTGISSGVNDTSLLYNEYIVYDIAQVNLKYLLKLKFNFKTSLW

Row | Compound | protection from LPS challenge [1] | protection from LPS challenge (3T3 fibroblasts) | protection from LPS challenge (A 549 cells) | protection from LPS challenge [2] | neuroprotective effect in the presence of raft-disrupting conditions [3] | PARP-1 inhibition (in words) [4] | interaction with PARP-1 (PARP-1) | interaction with SIR-2 (SIR-2)
1 | CN1CCN(CC(=O)N2c3ccccc3C(=O)Nc3cccnc32)CC1 [Pirenzepine] | protect from LPS challenge | protect from LPS challenge | protect from LPS challenge | protect from LPS challenge | does not occur | rather weak PARP-1 inhibitor | – | –
2 | thiocyanato 11-[2-(4-biocytinyl-piperazin-1-yl)-acetyl]-5,11-dihydro-benzo[e]pyrido[3,2-b][1,4]diazepin-6-one [affinity tag] | – | – | – | – | – | – | interacts with both proteins | interacts with both proteins
